In patent US12071434B2, “Heterocyclic compound” (Takeda Pharmaceutical Company Limited, priority 2018, dated 2024):

Legend:
[1] = target: T1, human orexin type 2 receptor (Homo sapiens, UniProt O43614); experiment: Measurement of orexin type 2 receptor agonist activity (calcium fluorescence, Fluo-4 AM, FDSS) in CHO cells forcibly expressing human OX2 receptor; assay type: cell-based; details: test compound 3 μM, DMSO = 0%, orexin A (human) 10 nM = 100%
T1 construct: expressed in transfected cells
T1 sequence (O43614 1-444): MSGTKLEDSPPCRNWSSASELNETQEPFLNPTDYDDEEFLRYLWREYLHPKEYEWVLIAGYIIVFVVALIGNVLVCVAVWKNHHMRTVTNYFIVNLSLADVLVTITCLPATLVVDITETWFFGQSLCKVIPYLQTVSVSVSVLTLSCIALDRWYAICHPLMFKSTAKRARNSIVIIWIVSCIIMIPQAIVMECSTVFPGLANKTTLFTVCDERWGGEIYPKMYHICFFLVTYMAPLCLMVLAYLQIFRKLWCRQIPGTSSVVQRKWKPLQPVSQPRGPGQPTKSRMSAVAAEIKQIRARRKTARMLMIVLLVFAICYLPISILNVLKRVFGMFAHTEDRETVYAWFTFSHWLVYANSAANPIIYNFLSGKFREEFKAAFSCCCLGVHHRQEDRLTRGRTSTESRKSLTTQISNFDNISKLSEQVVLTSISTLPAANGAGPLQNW
How it was run: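 CHO-dhfr cells stably expressing human OX2 receptor, loaded with Fluo-4 AM plus probenecid for 30 min at 37 °C, then 30 min at room temperature. Calcium fluorescence read for about 2 min 40 s after compound addition. Activity (%) scaled between DMSO (0%) and 10 nM human orexin A (100%).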

[2] = system: mice (C57BL/6J mice); experiment: Evaluation of wake-promoting effects by EEG and EMG in mice; assay type: in vivo; details: 30 mg/kg, p.o., at zeitgeber time 5; time spent in wakefulness for 2 h after administration; male mice
Method: The wake-promoting effects were evaluated by measuring the electroencephalogram (EEG) and electromyogram (EMG) in […] mice (C57BL/6Jmice, CLEA Japan Inc., Tokyo, Japan). Under pentobarbital sodium anesthesia (50 mg/kg, intraperitoneal, Somnopentyl®, Kyoritsu Seiyaku, Tokyo, Japan), […] male […] mice were surgically implanted with EEG electrode and EMG electrode. Bilateral EEG leads (Biotex, Kyoto, Japan) were stereotaxically positioned at the parietal area and secured to the cranium with stainless-steel screws in contact with the dura. Bilateral EMG leads (Biotex) were implanted into the back cervical muscles. After at least a 1-week recovery period in home cages, the […] mice were habituated to the recording chamber located in an electrically shielded soundproof room. After habituated, the cortical EEG and EMG signals were recorded using VitalRecorder® (Kissei Comtec Co., Ltd., Nagano, Japan). The signals were automatically scored in 4 sec epochs by a sleep scoring system (SleepSign®, Kissei Comtec Co., Ltd.). Test compound (30 mg/kg, Table 3X-1) dissolved in a mixed solution containing 10% DMSO, 10% Cremophor EL, 20% PEG400 and 60% H2O, or vehicle (i.e., a mixed solution containing 10% DMSO, 10% Cremophor EL, 20% PEG400 and 60% H2O) was administered orally (p.o.) to the […] mice at zeitgeber time 5 in a volume of 10 mL/kg. The EEG and EMG recordings were performed for 2 h after the compound administration. The time spent in wakefulness for 2 h after administration (% of vehicle treatment) was calculated by using SleepSign.

| 0X2R agonist activity (3 μM, %) [1] | Structure (SMILES) | Wakefulness time (% of vehicle treatment) (Mean, n = 3) [2] |
| --- | --- | --- |
| 95% | CC(C)n1cnc2c(c1=O)[C@@H](Cc1cccc(-c3cccc(F)c3)c1F)[C@@H](NS(=O)(=O)C1CC1)CC2 [Example 172, N-[(5R,6S)-5-[(2,3′-difluoro[1,1′-biphenyl]-3-yl)methyl]-4-oxo-3-(propan-2-yl)-3,4,5,6,7,8-hexahydroquinazolin-6-yl]cyclopropanesulfonamide] | 201.32 % of vehicle treatment |
| 93% | CC(C)n1cnc2c(c1=O)[C@@H](Cc1cccc(-c3ccccc3)c1F)[C@@H](NS(=O)(=O)C1CC1)CC2 [Example 176, N-[(5R,6S)-5-[(2-fluoro[1,1′-biphenyl]-3-yl)methyl]-4-oxo-3-(propan-2-yl)-3,4,5,6,7,8-hexahydroquinazolin-6-yl]cyclopropanesulfonamide] | 204.27 % of vehicle treatment |
| 94% | CC(C)n1cnc2c(c1=O)[C@@H](Cc1cccc(-c3ccccc3)c1F)[C@@H](NS(=O)(=O)C1(F)CC1)CC2 [Example 180, 1-fluoro-N-[(5R,6S)-5-[(2-fluoro[1,1′-biphenyl]-3-yl)methyl]-4-oxo-3-(propan-2-yl)-3,4,5,6,7,8-hexahydroquinazolin-6-yl]cyclopropane-1-sulfonamide] | 197.28 % of vehicle treatment |
| 94% | CC(C)n1cnc2c(c1=O)[C@@H](Cc1cccc(-c3cc(F)cc(F)c3)c1F)[C@@H](NS(=O)(=O)C1CC1)CC2 [Example 195, N-{(5R,6S)-4-oxo-3-(propan-2-yl)-5-[(2,3′,5′-trifluoro[1,1′-biphenyl]-3-yl)methyl]-3,4,5,6,7,8-hexahydroquinazolin-6-yl}cyclopropanesulfonamide] | 183.08 % of vehicle treatment |
| 99% | [2H]C([2H])([2H])C([2H])(n1cnc2c(c1=O)C(Cc1cccc(-c3ccccc3)c1F)C(NS(=O)(=O)C1CC1)CC2)C([2H])([2H])[2H] [Example 212, rel-N-{(5R,6S)-5-[(2-fluoro[1,1′-biphenyl]-3-yl)methyl]-4-oxo-3-[(~2~H_7_)propan-2-yl]-3,4,5,6,7,8-hexahydroquinazolin-6-yl}cyclopropanesulfonamide] |  |
| 105% | [2H]C([2H])([2H])C([2H])(n1cnc2c(c1=O)C(Cc1cccc(-c3ccccc3)c1F)C(NS(=O)(=O)C1(F)CC1)CC2)C([2H])([2H])[2H] [Example 213, rel-1-fluoro-N-{(5S,6R)-5-[(2-fluoro[1,1′-biphenyl]-3-yl)methyl]-4-oxo-3-[(~2~H_7_)propan-2-yl]-3,4,5,6,7,8-hexahydroquinazolin-6-yl}cyclopropane-1-sulfonamide] |  |
